For assay [1], the system named is T5R8/359 (RNA, aptamer) GGAUGAGCGACGCUGGAAGGAAGAAAAUGCAGAAAAAAAGAAAAAAAUGUCUGGGUCUGGCGACUGCUC
Kind of assay: isothermal titration calorimetry. The settings on record: 100 mM NaCl, 5 mM MgCl2, 50 mM HEPES, pH 7.6, 25 °C.

For assay [2], the system named is T8R16/409 (RNA, aptamer) GCCUGCAAGUGCGACGAAUGGGAAAUAGCAAAAGAAAACAGAGACACCGACAUGUUAGAGACCACCGACGUG
Briefly: isothermal titration calorimetry. The note with it: 100 mM NaCl, 5 mM MgCl2, 50 mM HEPES, pH 7.6, 25 °C. On the technique in general: In ITC the heat of successive injections is recorded.

The mark [3] stands for this setting: RNA 6 μM, nucleotide 100–200 μM in syringe.

Results on two molecules are retold here after publication PMC7615363 (2023).

For the molecule `Nc1nc2c(ncn2[C@@H]2O[C@H](COP(=O)(O)OP(=O)(O)OP(=O)(O)O)[C@@H](O)[C@H]2O)c(=O)[nH]1`, in assay [1] (setting [3]), the binding entry is “no”. Also, the Kd in assay [2] (one-site fit) is on record as ~ 0.5 μM.

As for `Nc1ncnc2c1ncn2[C@@H]1O[C@H](COP(=O)(O)OP(=O)(O)OP(=O)(O)O)[C@@H](O)[C@H]1O`, in assay [1] (one-site fit with stoichiometry constrained to 0.5), the Kd was ~ 7 μM. Besides, the binding entry in assay [2] (setting [3]) is listed as “no”.
